Source: ChEMBL document CHEMBL4507292 (2021)

How the values were obtained:
Homo sapiens [1] = species: Homo sapiens; assay: Estrogen ERbeta Eurofins-Panlabs radioligand binding assay; conditions: Compound concentration 10.0 uM
[2] = target: Epidermal growth factor receptor (Homo sapiens, UniProt P00533); assay: Protein Tyrosine Kinase, EGF Receptor Eurofins-Panlabs enzyme assay; design: substrate with concentration 10 µg/mL Poly(Glu:Tyr), incubation time 60 min, incubation temperature 25 °C
[3] = target: Alpha-2A adrenergic receptor (Homo sapiens, UniProt P08913); assay: (§1) Adrenergic alpha2A Eurofins-Panlabs radioligand binding assay; design: ligand concentration 1 nM, non-specific ligand with concentration 10 µM WB-4101, incubation time 60 min, incubation temperature 25 °C
[4] = target: T1, Alpha-2A adrenergic receptor (Homo sapiens) (UniProt P08913); assay: as §1; design: ligand concentration 1 nM, non-specific ligand with concentration 10 µM WB-4101, incubation time 60 min, incubation temperature 25 °C
T1 sequence (whole entry): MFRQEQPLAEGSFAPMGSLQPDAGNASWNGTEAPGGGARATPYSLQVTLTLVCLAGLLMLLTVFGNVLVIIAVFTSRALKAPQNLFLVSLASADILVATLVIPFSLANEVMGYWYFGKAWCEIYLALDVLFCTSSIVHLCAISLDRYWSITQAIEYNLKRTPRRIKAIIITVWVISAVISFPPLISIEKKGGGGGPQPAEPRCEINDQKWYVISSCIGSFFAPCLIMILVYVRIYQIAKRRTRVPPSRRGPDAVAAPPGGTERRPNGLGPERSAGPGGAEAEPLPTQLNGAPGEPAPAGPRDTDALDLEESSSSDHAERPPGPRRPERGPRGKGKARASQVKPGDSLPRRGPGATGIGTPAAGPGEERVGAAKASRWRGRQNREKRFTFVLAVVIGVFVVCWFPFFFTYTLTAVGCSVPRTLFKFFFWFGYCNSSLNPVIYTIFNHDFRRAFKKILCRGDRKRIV

[5] = target: Endothelin-converting enzyme 1 (Homo sapiens) (UniProt P42892); assay: Peptidase, Endothelin Converting Enzyme-1 (ECE-1) Eurofins-Panlabs enzyme assay; conditions: Compound concentration 10.0 uM
Caspase-1 (Homo sapiens) = Caspase-1 (Homo sapiens) (UniProt P29466); assay: Inhibition of Peptidase, CASP1 (Caspase 1) at 10 µM in the Eurofins-Panlabs enzyme assay (Eurofins_assay_163000); conditions: Compound concentration 10.0 uM
Sequence of Caspase-1 (Homo sapiens) (P29466 120-297 limits assumed): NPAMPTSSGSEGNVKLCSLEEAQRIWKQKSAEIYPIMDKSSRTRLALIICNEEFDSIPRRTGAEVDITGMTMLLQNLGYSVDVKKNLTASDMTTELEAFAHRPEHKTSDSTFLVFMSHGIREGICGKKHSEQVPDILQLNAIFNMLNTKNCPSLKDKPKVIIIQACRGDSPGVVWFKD
Sequence of Caspase-1 (Homo sapiens) (P29466 317-404 limits assumed): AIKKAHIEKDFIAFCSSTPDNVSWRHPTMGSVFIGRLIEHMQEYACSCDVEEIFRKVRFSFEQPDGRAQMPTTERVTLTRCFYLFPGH

[6] = target: Cannabinoid receptor 1 (Homo sapiens) (UniProt P21554); assay: Cannabinoid CB1 Eurofins-Panlabs radioligand binding assay; conditions: Compound concentration 10.0 uM
Sequence of Cannabinoid receptor 1 (Homo sapiens) (P21554 whole entry): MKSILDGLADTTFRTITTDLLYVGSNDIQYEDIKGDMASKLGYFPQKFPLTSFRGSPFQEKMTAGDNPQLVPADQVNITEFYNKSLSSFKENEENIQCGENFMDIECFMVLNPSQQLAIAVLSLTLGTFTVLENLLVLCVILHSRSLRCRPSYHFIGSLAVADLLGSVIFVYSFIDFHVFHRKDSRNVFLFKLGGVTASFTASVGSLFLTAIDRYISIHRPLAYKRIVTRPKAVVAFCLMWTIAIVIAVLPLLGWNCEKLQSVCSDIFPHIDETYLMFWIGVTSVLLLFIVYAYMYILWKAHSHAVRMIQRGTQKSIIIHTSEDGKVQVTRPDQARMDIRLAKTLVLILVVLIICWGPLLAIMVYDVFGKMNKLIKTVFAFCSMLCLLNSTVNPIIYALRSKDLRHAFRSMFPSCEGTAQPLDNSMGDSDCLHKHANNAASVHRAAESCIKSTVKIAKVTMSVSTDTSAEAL

[7] = target: Adenosine receptor A1 (Homo sapiens) (UniProt P30542); conditions: Compound concentration 10.0 uM
Sequence of Adenosine receptor A1 (Homo sapiens) (P30542 whole entry): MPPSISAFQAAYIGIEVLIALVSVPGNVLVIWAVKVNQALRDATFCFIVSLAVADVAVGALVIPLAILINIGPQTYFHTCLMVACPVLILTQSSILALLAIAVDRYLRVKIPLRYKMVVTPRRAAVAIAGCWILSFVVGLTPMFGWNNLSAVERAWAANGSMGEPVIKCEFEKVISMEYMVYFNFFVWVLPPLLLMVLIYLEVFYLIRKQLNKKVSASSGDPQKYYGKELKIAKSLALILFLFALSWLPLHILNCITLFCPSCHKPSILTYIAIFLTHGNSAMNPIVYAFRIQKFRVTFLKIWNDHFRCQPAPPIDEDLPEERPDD

[8] = target: T2, D(4) dopamine receptor (Homo sapiens) (UniProt P21917); assay: Dopamine D4.4 Eurofins-Panlabs radioligand binding assay; design: ligand concentration 1.2 nM; conditions: Compound concentration 10.0 uM
T2 sequence (whole entry): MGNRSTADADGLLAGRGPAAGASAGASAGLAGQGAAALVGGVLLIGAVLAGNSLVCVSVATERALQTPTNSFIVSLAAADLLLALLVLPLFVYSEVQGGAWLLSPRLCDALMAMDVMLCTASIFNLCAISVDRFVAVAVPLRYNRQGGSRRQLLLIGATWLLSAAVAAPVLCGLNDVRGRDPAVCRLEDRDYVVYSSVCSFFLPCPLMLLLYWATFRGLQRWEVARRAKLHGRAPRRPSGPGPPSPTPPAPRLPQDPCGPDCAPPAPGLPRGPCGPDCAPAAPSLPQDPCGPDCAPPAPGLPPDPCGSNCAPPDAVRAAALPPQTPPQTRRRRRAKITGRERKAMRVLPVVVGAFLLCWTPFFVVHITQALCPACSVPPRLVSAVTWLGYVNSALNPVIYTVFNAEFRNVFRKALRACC

[9] = target: Polyunsaturated fatty acid lipoxygenase ALOX12 (Homo sapiens) (UniProt P18054); assay: Lipoxygenase 12-LO Eurofins-Panlabs enzyme assay; design: substrate with concentration; conditions: Compound concentration 10.0 uM
Sequence of Polyunsaturated fatty acid lipoxygenase ALOX12 (Homo sapiens) (P18054 whole entry): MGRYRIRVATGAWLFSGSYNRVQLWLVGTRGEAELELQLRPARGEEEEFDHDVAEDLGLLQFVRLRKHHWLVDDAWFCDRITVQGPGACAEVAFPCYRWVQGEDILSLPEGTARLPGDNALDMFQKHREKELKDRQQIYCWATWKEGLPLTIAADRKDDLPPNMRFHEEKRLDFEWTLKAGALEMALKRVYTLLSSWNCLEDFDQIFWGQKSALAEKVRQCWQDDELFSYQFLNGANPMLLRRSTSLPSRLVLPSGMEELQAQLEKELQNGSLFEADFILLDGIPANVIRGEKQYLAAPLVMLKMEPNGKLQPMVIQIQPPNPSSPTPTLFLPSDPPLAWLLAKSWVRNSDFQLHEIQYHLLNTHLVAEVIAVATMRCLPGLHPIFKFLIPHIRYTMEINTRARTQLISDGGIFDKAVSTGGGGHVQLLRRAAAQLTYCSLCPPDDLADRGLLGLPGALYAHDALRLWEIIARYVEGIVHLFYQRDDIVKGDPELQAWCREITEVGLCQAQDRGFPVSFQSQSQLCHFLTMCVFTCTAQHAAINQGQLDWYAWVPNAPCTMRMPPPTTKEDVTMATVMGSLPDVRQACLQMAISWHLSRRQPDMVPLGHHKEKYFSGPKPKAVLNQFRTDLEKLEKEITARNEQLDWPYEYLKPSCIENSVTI

[10] = target: Prostacyclin receptor (Homo sapiens) (UniProt P43119); assay: Prostanoid IP Eurofins-Panlabs radioligand binding assay; design: ligand concentration 5 nM; conditions: Compound concentration 10.0 uM
Sequence of Prostacyclin receptor (Homo sapiens) (P43119 whole entry): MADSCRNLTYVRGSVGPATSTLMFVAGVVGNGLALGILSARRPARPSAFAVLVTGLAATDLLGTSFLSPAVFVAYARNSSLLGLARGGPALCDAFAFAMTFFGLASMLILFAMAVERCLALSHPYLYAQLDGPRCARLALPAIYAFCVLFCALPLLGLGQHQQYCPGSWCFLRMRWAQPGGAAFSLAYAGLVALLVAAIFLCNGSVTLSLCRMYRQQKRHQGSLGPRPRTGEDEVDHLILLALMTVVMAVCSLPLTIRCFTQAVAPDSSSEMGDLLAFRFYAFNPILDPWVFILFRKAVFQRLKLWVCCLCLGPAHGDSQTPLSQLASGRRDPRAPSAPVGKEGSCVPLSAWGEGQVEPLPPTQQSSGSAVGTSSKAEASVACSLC

Rattus norvegicus = species: Rattus norvegicus; assay: Adrenergic α1, Non-selective Eurofins-Panlabs radioligand binding assay; type: protein assay; conditions: Compound concentration 10.0 uM
[11] = target: T3, Alpha-2B adrenergic receptor (Homo sapiens) (UniProt P18089); conditions: Compound concentration 10.0 uM
T3 sequence (whole entry): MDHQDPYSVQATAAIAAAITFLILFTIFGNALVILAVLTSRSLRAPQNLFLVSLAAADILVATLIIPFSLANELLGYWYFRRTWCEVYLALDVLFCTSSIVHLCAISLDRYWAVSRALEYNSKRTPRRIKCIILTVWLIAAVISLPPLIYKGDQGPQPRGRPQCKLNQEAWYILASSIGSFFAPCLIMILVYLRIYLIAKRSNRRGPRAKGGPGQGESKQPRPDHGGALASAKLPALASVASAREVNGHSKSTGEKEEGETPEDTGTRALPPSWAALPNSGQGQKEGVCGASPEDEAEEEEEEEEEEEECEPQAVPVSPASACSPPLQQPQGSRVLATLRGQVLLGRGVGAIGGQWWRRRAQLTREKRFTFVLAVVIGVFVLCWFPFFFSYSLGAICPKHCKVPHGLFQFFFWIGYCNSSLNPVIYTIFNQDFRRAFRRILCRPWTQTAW

[12] = target: Somatostatin receptor type 3 (Homo sapiens) (UniProt P32745); assay: Somatostatin sst3 Eurofins-Panlabs radioligand binding assay; conditions: concentration not given here
[13] = target: Neutrophil elastase (Homo sapiens) (UniProt P08246); assay: Peptidase, ELA2 (Neutrophil Elastase 2) Eurofins-Panlabs enzyme assay; conditions: Compound concentration 30.0 uM
[14] = target: Peroxisome proliferator-activated receptor alpha (Homo sapiens) (UniProt Q07869); assay: PPARalpha Eurofins-Panlabs radioligand binding assay; conditions: Compound concentration 10.0 uM
Sequence of Peroxisome proliferator-activated receptor alpha (Homo sapiens) (Q07869 whole entry): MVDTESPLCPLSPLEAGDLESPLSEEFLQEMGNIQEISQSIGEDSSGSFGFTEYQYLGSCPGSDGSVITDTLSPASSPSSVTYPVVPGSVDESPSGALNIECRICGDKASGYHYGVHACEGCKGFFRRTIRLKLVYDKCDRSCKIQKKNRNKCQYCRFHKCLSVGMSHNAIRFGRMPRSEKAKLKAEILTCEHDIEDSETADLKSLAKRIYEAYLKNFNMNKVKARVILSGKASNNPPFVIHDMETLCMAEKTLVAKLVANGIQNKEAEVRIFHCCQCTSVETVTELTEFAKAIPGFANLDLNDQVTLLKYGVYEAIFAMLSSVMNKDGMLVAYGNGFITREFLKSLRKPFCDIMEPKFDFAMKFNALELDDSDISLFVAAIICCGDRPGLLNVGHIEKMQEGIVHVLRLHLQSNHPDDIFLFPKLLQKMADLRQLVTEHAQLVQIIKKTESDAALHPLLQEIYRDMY

[15] = target: Histamine H3 receptor (Homo sapiens) (UniProt Q9Y5N1); assay: Histamine H3 Eurofins-Panlabs radioligand binding assay; conditions: Compound concentration 10.0 uM
[16] = target: Neprilysin (Homo sapiens) (UniProt P08473); assay: Peptidase, Metalloproteinase, Neutral Endopeptidase Eurofins-Panlabs enzyme assay; conditions: Compound concentration 10.0 uM
[17] = target: Somatostatin receptor type 5 (Homo sapiens) (UniProt P35346); assay: Somatostatin sst5 Eurofins-Panlabs radioligand binding assay; conditions: Compound concentration 10.0 uM
Sequence of Somatostatin receptor type 5 (Homo sapiens) (P35346 whole entry): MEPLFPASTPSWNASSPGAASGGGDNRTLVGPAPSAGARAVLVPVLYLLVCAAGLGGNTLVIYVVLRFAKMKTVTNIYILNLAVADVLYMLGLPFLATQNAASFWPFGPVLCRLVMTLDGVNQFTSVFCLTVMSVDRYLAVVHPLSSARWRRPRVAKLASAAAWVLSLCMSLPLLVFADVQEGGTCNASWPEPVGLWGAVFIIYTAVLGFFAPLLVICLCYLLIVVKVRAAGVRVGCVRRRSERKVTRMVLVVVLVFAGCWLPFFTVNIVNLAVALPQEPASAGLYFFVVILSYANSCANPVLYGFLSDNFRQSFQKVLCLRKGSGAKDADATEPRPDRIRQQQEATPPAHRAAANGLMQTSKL

[18] = target: Receptor-type tyrosine-protein phosphatase C (Homo sapiens) (UniProt P08575); assay: Inhibition of Protein Tyrosine Phosphatase, PTPRC (CD45) at 10 µM in the Eurofins-Panlabs enzyme assay (Eurofins_assay_190010); conditions: Compound concentration 10.0 uM
[19] = target: Neuropeptide Y receptor type 1 (Homo sapiens) (UniProt P25929); assay: Inhibition of Neuropeptide Y Y1 at 10 µM in the Eurofins-Panlabs radioligand binding assay (Eurofins_assay_257010)
Homo sapiens [20] = species: Homo sapiens; assay: Inhibition of Nicotinic Acetylcholine at compound concentration of 10.0 uM in the Eurofins-Panlabs radioligand binding assay (Eurofins_assay_258590); type: protein-complex assay; conditions: Compound concentration 10.0 uM
[21] = target: Mitogen-activated protein kinase 14 (Homo sapiens, UniProt Q16539); assay: NanoBRET (SGC Frankfurt) (MAPK14)
Sequence of Mitogen-activated protein kinase 14 (Q16539 whole entry): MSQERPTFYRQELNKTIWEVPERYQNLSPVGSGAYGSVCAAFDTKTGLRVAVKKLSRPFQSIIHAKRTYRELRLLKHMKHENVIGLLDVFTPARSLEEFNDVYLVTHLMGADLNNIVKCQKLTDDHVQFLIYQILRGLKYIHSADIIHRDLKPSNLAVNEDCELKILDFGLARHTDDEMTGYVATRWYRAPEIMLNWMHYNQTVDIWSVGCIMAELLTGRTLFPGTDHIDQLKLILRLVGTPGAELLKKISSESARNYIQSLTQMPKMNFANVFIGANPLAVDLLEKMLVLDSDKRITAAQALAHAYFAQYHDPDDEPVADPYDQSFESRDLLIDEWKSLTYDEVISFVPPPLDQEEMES

[22] = target: Tyrosine-protein phosphatase non-receptor type 2 (Homo sapiens) (UniProt P17706); assay: Protein Tyrosine Phosphatase, PTPN2 (TCPTP) Eurofins-Panlabs enzyme assay; design: substrate with concentration DiFMUP, incubation time 60 min, incubation temperature 37 °C; conditions: Compound concentration 10.0 uM
Sequence of Tyrosine-protein phosphatase non-receptor type 2 (Homo sapiens) (P17706 whole entry): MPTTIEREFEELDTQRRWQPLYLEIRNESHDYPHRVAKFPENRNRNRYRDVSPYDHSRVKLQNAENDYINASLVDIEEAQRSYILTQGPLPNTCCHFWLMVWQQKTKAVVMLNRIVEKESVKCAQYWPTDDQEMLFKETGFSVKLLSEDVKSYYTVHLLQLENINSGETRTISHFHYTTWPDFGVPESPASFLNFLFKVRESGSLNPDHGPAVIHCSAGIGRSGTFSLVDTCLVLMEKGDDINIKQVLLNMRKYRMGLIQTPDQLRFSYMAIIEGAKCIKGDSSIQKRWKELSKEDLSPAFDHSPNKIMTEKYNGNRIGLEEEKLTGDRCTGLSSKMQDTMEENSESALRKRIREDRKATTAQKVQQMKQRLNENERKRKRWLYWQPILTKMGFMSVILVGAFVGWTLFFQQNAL

Sequence of Epidermal growth factor receptor (P00533 whole entry): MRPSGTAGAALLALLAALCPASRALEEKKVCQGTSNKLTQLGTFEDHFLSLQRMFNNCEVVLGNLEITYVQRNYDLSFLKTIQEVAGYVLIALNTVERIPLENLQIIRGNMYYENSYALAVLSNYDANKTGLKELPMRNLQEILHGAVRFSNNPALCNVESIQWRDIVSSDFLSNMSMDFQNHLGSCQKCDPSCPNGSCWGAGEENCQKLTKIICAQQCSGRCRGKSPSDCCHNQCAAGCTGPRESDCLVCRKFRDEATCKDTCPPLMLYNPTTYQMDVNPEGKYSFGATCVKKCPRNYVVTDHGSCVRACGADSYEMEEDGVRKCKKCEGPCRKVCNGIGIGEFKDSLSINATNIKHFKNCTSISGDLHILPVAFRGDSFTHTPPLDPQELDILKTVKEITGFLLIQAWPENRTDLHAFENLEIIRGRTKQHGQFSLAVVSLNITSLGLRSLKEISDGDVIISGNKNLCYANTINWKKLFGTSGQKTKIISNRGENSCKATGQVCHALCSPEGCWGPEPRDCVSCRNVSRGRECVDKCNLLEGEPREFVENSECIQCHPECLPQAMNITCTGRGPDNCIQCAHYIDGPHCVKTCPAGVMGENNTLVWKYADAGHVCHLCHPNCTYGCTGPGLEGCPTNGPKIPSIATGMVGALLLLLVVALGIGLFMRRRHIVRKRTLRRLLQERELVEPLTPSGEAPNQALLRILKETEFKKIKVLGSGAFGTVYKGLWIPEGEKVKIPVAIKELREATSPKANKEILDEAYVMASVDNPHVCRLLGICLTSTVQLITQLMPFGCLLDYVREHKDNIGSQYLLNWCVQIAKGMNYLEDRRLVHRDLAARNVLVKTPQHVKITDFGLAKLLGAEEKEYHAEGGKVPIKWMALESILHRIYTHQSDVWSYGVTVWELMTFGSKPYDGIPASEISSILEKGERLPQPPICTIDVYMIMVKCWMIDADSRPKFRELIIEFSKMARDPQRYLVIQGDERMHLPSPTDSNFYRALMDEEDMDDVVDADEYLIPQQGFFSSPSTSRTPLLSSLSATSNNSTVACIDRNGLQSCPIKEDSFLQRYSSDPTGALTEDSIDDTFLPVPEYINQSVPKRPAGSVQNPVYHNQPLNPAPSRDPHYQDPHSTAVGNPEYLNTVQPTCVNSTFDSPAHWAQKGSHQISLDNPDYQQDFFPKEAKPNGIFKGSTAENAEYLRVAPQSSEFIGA

`O=C(O)c1cc(-c2ccc(C3CCNCC3)cc2)c2ccc(-c3ccc(C(F)(F)F)cc3)cc2c1` [PPTN] gave an inhibition (Homo sapiens [1]) of 1%, an IC50 [2] of 4.59 µM and an inhibition ([2]; Compound concentration 0.01 uM) of -6%. For the same compound, the inhibition ([2]; Compound concentration 0.1 uM) was -3%, the inhibition ([2]; Compound concentration 1.0 uM) was 12% and the inhibition ([2]; Compound concentration 10.0 uM) was 74%. It also gave an IC50 [3] of 4.07 µM, a Ki [3] of 1.53 µM and an inhibition ([4]; Compound concentration 0.01 uM) of 9%. The inhibition ([4]; Compound concentration 0.1 uM) was 13%, the inhibition ([4]; Compound concentration 1.0 uM) was 11% and the inhibition ([4]; Compound concentration 10.0 uM) was 78%. For the same compound, the inhibition [5] was 12%, the inhibition (Caspase-1 (Homo sapiens)) was -1% and the inhibition [6] was -6%. For the same compound, the inhibition [7] was -2%, the inhibition [8] was -8% and the inhibition [9] was 30%. The inhibition [10] was -3%, the inhibition (Rattus norvegicus) was -4% and the inhibition [11] was -1%. For the same compound, the inhibition [12] was 35%, the inhibition [13] was -4% and the inhibition [14] was 15%. For the same compound, the inhibition [15] was 0%, the inhibition [16] was 1% and the inhibition [17] was 20%. The inhibition [18] was -7%, the inhibition [19] was 2% and the inhibition (Homo sapiens [20]) was 0%. For the same compound, the IC50 [21] was > 20 µM (not active) and the inhibition [22] was -4%.
